Test results from patent US6949571B2, “1,2-dihydropyridine compounds, process for preparation of the same and use thereof” (Eisai Co., Ltd., priority 2000, dated 2005).

The compounds below were run on AMPA receptor. Conditions: Table 1; primary culture of rat embryo cerebral cortex nerve cells, 2 μM AMPA, 1 μM MK-801.
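Further: primary rat embryonic cortical neurons grown on an astrocyte layer in 96-well plates, used after at least 8 to 10 days in culture, Fura2-AM fluorescence ratio at 340/380 nm excitation.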

| Compound | IC50 |
| --- | --- |
| COc1ccncc1-n1cc(-c2ccccn2)cc(-c2cccnc2F)c1=O [Example 86, 3-(2-Fluoro-3-pyridyl)-5-(2-pyridyl)-1-(4-methoxy-3-pyridyl)-1,2-dihydropyridin-2-one] | 1.9 µM |
| O=c1c(-c2cccnc2F)cc(-c2ccccc2)cn1-c1cccnc1 [Example 87, 3-(2-Fluoro-3-pyridyl)-5-phenyl-1-(3-pyridyl)-1,2-dihydropyridin-2-one] | 1.2 µM |
| O=c1c(-c2cccnc2F)cc(-c2ccccn2)cn1-c1cccc(F)c1 [Example 88, 3-(2-Fluoro-3-pyridyl)-5-(2-pyridyl)-1-(3-fluorophenyl)-1,2-dihydropyridin-2-one] | 0.3 µM |
| N#Cc1ccccc1-c1cc(-c2ccccn2)cn(-c2cccc(F)c2)c1=O [Example 92, 3-(2-Cyanophenyl)-5-(2-pyridyl)-1-(3-fluorophenyl)-1,2-dihydropyridin-2-one] | 0.05 µM |
| N#Cc1ccc(-n2cc(-c3ccccn3)cc(-c3ccccc3C#N)c2=O)cc1 [Example 93, 3-(2-Cyanophenyl)-5-(2-pyridyl)-1-(4-cyanophenyl)-1,2-dihydropyridin-2-one] | 1.9 µM |
| N#Cc1cccc(-n2cc(-c3ccccn3)cc(-c3ccccc3C#N)c2=O)c1 [Example 94, 3-(2-Cyanophenyl)-5-(2-pyridyl)-1-(3-cyanophenyl)-1,2-dihydropyridin-2-one] | 1.5 µM |
| COc1ccc(-n2cc(-c3ccccn3)cc(-c3ccccc3C#N)c2=O)cc1 [Example 95, 3-(2-Cyanophenyl)-5-(2-pyridyl)-1-(4-methoxyphenyl)-1,2-dihydropyridin-2-one] | 0.3 µM |
| COc1cccc(-n2cc(-c3ccccn3)cc(-c3ccccc3C#N)c2=O)c1 [Example 96, 3-(2-Cyanophenyl)-5-(2-pyridyl)-1-(3-methoxyphenyl)-1,2-dihydropyridin-2-one] | 0.06 µM |
| O=c1c(-c2ccccc2)cc(-c2ccccn2)cn1-c1cccc(F)c1 [Example 97, 3-Phenyl-5-(2-pyridyl)-1-(3-fluorophenyl)-1,2-dihydropyridin-2-one] | 0.4 µM |
| O=c1c(-c2ccccc2)cc(-c2ccccn2)cn1-c1ccc(F)cc1 [Example 98, 3-Phenyl-5-(2-pyridyl)-1-(4-fluorophenyl)-1,2-dihydropyridin-2-one] | 0.6 µM |
| O=c1c(-c2ccccc2Cl)cc(-c2ccccn2)cn1-c1ccc(F)cc1 [Example 99, 3-(2-Chlorophenyl)-5-(2-pyridyl)-1-(4-fluorophenyl)-1,2-dihydropyridin-2-one] | 0.1 µM |
| N#Cc1ccccc1-c1cc(-c2ccccn2)cn(-c2ccc(C=O)cc2)c1=O [Example 100, 3-(2-Cyanophenyl)-5-(2-pyridyl)-1-(4-formylphenyl)-1,2-dihydropyridin-2-one] | 0.4 µM |
| N#Cc1ccccc1-c1cc(-c2ccccn2)cn(-c2ccccc2C=O)c1=O [Example 101, 3-(2-Cyanophenyl)-5-(2-pyridyl)-1-(2-formylphenyl)-1,2-dihydropyridin-2-one] | 0.2 µM |
| N#Cc1ccccc1-c1cc(-c2ccccn2)cn(-c2cccc(Cl)c2)c1=O [Example 102, 3-(2-Cyanophenyl)-5-(2-pyridyl)-1-(3-chlorophenyl)-1,2-dihydropyridin-2-one] | 0.02 µM |
| Cc1cccc(-n2cc(-c3ccccn3)cc(-c3ccccc3C#N)c2=O)c1 [Example 103, 3-(2-Cyanophenyl)-5-(2-pyridyl)-1-(3-tolyl)-1,2-dihydropyridin-2-one] | 0.03 µM |
| N#Cc1ccccc1-c1cc(-c2ccccn2)cn(-c2cccc(C(F)(F)F)c2)c1=O [Example 104, 3-(2-Cyanophenyl)-5-(2-pyridyl)-1-(3-trifluoromethylphenyl)-1,2-dihydropyridin-2-one] | 0.2 µM |
| N#Cc1ccccc1-c1cc(-c2ccccn2)cn(-c2ccsc2)c1=O [Example 105, 3-(2-Cyanophenyl)-5-(2-pyridyl)-1-(thiophen-3-yl)-1,2-dihydropyridin-2-one] | 0.03 µM |
| N#Cc1ccccc1-c1cc(-c2ccccn2)cn(-c2ccoc2)c1=O [Example 106] | 0.07 µM |
| Cc1ccc(-n2cc(-c3ccccn3)cc(-c3ccccc3C#N)c2=O)cc1 [Example 107, 3-(2-Cyanophenyl)-5-(2-pyridyl)-1-(4-tolyl)-1,2-dihydropyridin-2-one] | 0.07 µM |
| N#Cc1ccccc1-c1cc(-c2ccccn2)cn(-c2ccc(C(F)(F)F)cc2)c1=O [Example 108, 3-(2-Cyanophenyl)-5-(2-pyridyl)-1-(4-trifluoromethylphenyl)-1,2-dihydropyridin-2-one] | 0.03 µM |
| COc1ccc(-n2cc(-c3ccccn3)cc(-c3ccccc3C#N)c2=O)cn1 [Example 109, 3-(2-Cyanophenyl)-5-(2-pyridyl)-1-(2-methoxypyridyn-5-yl)-1,2-dihydropyridin-2-one] | 0.01 µM |

| Compound | IC50 |
| --- | --- |
| N#Cc1ccccc1-c1cc(-c2ccccn2)cn(-c2ccccc2C#N)c1=O [Example 110, 3-(2-Cyanophenyl)-5-(2-pyridyl)-1-(2-cyanophenyl)-1,2-dihydropyridin-2-one] | 2 µM |
| N#Cc1ccccc1-c1cc(-c2ccccn2)cn(-c2cncnc2)c1=O [Example 111, 3-(2-Cyanophenyl)-5-(2-pyridyl)-1-(pyrimidin-5-yl)-1,2-dihydropyridin-2-one] | 0.4 µM |
| N#Cc1ccccc1-c1cc(-c2ccccn2)cn(-c2ccc(N3CCCC3)nc2)c1=O [Example 112, 3-(2-Cyanophenyl)-5-(2-pyridyl)-1-[2-(pyrrolidin-1-yl)-pyridin-5-yl]-1,2-dihydropyridin-2-one] | 0.6 µM |
| N#Cc1ccccc1-c1cc(-c2ccccn2)cn(-c2ccc(N3CCN(Cc4ccccc4)CC3)nc2)c1=O [Example 113, 3-(2-Cyanophenyl)-5-(2-pyridyl)-1-[2-(4-benzylpiperazin-1-yl)-pyridin-5-yl]-1,2-dihydropyridin-2-one] | 1.2 µM |
| N#Cc1ccccc1-c1cc(-c2ccccn2)cn(-c2ccc(OCCOCc3ccccc3)nc2)c1=O [Example 114, 3-(2-Cyanophenyl)-5-(2-pyridyl)-1-(2-benzyloxyethoxypyridin-5-yl)-1,2-dihydropyridin-2-one] | 0.6 µM |
| N#Cc1ccccc1-c1cc(-c2ccccn2)cn(-c2cncc(COCc3ccccc3)c2)c1=O [Example 115, 3-(2-Cyanophenyl)-5-(2-pyridyl)-1-(3-benzyloxymethylpyridin-5-yl)-1,2-dihydropyridin-2-one] | 0.06 µM |
| CCSc1ccc(-n2cc(-c3ccccn3)cc(-c3ccccc3C#N)c2=O)cn1 [Example 116, 3-(2-Cyanophenyl)-5-(2-pyridyl)-1-(2-ethylthiopyridin-5-yl)-1,2-dihydropyridin-2-one] | 0.2 µM |
| N#Cc1ccccc1-c1cc(-c2ccccn2)cn(-c2ccncc2)c1=O [Example 117, 3-(2-Cyanophenyl)-5-(2-pyridyl)-1-(4-pyridyl)-1,2-dihydropyridin-2-one] | 0.4 µM |
| COc1cncc(-n2cc(-c3ccccn3)cc(-c3ccccc3C#N)c2=O)c1 [Example 118, 3-(2-Cyanophenyl)-5-(2-pyridyl)-1-(3-methoxypyridin-5-yl)-1,2-dihydropyridin-2-one] | 0.1 µM |
| N#Cc1ccccc1-c1cc(-c2ccccn2)cn(-c2ccc(OCCO)nc2)c1=O [Example 119, 3-(2-Cyanophenyl)-5-(2-pyridyl)-1-(2-hydroxyethoxypyridin-5-yl)-1,2-dihydropyridin-2-one] | 1.7 µM |
| N#Cc1ccccc1-c1cc(-c2ccccn2)cn(-c2ccc(Cl)nc2)c1=O [Example 120, 3-(2-Cyanophenyl)-5-(2-pyridyl)-1-(2-chloropyridin-5-yl)-1,2-dihydropyridin-2-one] | 0.2 µM |
| CN1CCN(c2ccc(-n3cc(-c4ccccn4)cc(-c4ccccc4C#N)c3=O)cn2)CC1 [Example 121, 3-(2-Cyanophenyl)-5-(2-pyridyl)-1-[2-(4-methylpiperazin-1-yl)-pyridin-5-yl]-1,2-dihydropyridin-2-one] | 0.6 µM |
| N#Cc1ccccc1-c1cc(-c2ccccn2)cn(-c2ccc(F)nc2)c1=O [Example 123, 3-(2-Cyanophenyl)-5-(2-pyridyl)-1-(2-fluoropyridin-5-yl)-1,2-dihydropyridin-2-one] | 0.2 µM |
| CCc1ccc(-n2cc(-c3ccccn3)cc(-c3ccccc3C#N)c2=O)cn1 [Example 124, 3-(2-Cyanophenyl)-5-(2-pyridyl)-1-(2-ethylpyridine-5-yl)-1,2-dihydropyridin-2-one] | 0.7 µM |
| O=c1c(-c2ccccc2)cc(-c2ccccn2)cn1-c1cccnc1 [Example 127, 3-Phenyl-5-(2-pyridyl)-1-(3-pyridyl)-1,2-dihydropyridin-2-one] | 0.4 µM |
| COc1ccccc1-c1cc(-c2ccccn2)cn(-c2cccnc2)c1=O [Example 129, 3-(2-Methoxyphenyl)-5-(2-pyridyl)-1-(3-pyridyl)-1,2-dihydropyridin-2-one] | 2.6 µM |
| O=Cc1sccc1-c1cc(-c2ccccn2)cn(-c2cccnc2)c1=O [Example 130, 3-(2-Formylthiophen-3-yl)-5-(2-pyridyl)-1-(3-pyridyl)-1,2-dihydropyridin-2-one] | 0.9 µM |
| O=c1c(-c2ccc(Cl)cc2Cl)cc(-c2ccccn2)cn1-c1cccnc1 [Example 131, 3-(2.4-Dichlorophenyl)-5-(2-pyridyl)-1-(3-pyridyl)-1,2-dihydropyridin-2-one] | 3.7 µM |
| O=c1c(-c2ccccc2C(F)(F)F)cc(-c2ccccn2)cn1-c1cccnc1 [Example 132, 3-(2-Trifluoromethylphenyl)-5-(2-pyridyl)-1-(3-pyridyl)-1,2-dihydropyridin-2-one] | 3.1 µM |
| O=c1c(-c2ccsc2)cc(-c2ccccn2)cn1-c1cccnc1 [Example 133, 3-(Thiophen-3-yl)-5-(2-pyridyl)-1-(3-pyridyl)-1,2-dihydropyridin-2-one] | 0.3 µM |

Same assay, conditions: Table 2; suppression of AMPA-induced calcium influx into nerve cells

| IC50 | Compound |
| --- | --- |
| 0.04 µM | Cc1cccc(C)c1-c1cc(-c2ccccn2)cn(-c2cccnc2)c1=O [Example 135, 3-(2,6-Dimethylphenyl)-5-(2-pyridyl)-1-(3-pyridyl)-1,2-dihydropyridin-2-one] |
| 6.6 µM | NC(=O)c1ccccc1-c1cc(-c2ccccn2)cn(-c2ccccc2)c1=O [Example 140, 3-(2-Aminocarbonylphenyl)-5-(2-pyridyl)-1-phenyl-1,2-dihydropyridin-2-one] |
